From paper PMC5053573, “Structure-Based Design of Tetrahydroisoquinoline-7-carboxamides as Selective Discoidin Domain Receptor 1 (DDR1) Inhibitors” (Journal of Medicinal Chemistry, 2016)

Columns and labels:
Experiment in all cases: biochemical
Conditions in all cases: read-out: %Ctrl @ 1000nM
[1] = target: CDK8 (Homo sapiens, UniProt P49336)
[2] = target: T1, TIE2 (Homo sapiens, UniProt Q02763)
T1 construct: gene TEK

[3] = target: PAK1 (Homo sapiens, UniProt Q13153)
[4] = target: LYN (Homo sapiens, UniProt P07948)
Sequence of LYN (P07948 whole entry): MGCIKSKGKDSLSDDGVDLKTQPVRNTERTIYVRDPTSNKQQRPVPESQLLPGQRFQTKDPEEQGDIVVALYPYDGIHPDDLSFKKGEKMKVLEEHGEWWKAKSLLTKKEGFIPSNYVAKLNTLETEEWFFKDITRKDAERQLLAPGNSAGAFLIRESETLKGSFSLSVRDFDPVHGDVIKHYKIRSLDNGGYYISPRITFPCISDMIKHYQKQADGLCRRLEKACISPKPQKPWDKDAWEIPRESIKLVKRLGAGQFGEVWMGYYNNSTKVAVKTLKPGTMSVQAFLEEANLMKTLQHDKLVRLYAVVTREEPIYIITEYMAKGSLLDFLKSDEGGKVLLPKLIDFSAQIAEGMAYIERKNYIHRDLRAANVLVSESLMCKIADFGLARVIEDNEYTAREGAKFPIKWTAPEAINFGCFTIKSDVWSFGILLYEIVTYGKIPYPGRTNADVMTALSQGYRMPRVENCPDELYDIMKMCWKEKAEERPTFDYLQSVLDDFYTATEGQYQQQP

[5] = target: JAK1(JH1domain-catalytic) (Homo sapiens, UniProt P23458)
[6] = target: T2, PKAC-alpha (Homo sapiens, UniProt P17612)
T2 construct: gene PRKACA

[7] = target: SLK (Homo sapiens, UniProt Q9H2G2)
[8] = target: TAOK3 (Homo sapiens, UniProt Q9H2K8)
[9] = target: SRPK3 (Homo sapiens, UniProt Q9UPE1)
[10] = target: ACVRL1 (Homo sapiens, UniProt P37023)
[11] = target: T3, RSK4(Kin.Dom.1-N-terminal) (Homo sapiens, UniProt Q9UK32)
T3 construct: gene RPS6KA6

[12] = target: PIM3 (Homo sapiens, UniProt Q86V86)
[13] = target: MAPKAPK2 (Homo sapiens, UniProt P49137)
[14] = target: T4, AMPK-alpha2 (Homo sapiens, UniProt P54646)
T4 construct: gene PRKAA2

[15] = target: AURKB (Homo sapiens, UniProt Q96GD4)
[16] = target: MARK1 (Homo sapiens, UniProt Q9P0L2)
[17] = target: HIPK4 (Homo sapiens, UniProt Q8NE63)
[18] = target: T5, RSK1(Kin.Dom.1-N-terminal) (Homo sapiens, UniProt Q15418)
T5 construct: gene RPS6KA1

[19] = target: IRAK1 (Homo sapiens, UniProt P51617)
Sequence of IRAK1 (P51617 whole entry): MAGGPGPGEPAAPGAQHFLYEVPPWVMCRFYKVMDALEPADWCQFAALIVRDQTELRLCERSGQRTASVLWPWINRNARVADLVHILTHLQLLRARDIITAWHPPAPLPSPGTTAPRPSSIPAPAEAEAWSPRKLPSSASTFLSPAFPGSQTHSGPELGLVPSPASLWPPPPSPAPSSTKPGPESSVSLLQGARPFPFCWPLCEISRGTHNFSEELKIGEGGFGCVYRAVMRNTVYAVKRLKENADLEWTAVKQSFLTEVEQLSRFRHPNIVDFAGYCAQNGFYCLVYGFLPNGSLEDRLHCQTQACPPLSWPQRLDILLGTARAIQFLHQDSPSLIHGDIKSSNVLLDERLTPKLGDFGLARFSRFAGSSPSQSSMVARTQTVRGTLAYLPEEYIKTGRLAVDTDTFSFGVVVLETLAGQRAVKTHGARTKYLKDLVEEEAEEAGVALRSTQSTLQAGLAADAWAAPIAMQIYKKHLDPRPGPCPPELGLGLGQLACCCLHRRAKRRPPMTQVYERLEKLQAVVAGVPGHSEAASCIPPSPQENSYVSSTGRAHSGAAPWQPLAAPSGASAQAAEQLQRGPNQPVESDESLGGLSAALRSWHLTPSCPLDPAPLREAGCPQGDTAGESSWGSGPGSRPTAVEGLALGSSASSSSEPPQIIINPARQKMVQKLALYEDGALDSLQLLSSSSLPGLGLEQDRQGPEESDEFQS

[20] = target: FLT3(ITD) (Homo sapiens, UniProt P36888, ITD)
[21] = target: NEK11 (Homo sapiens, UniProt Q8NG66)
Sequence of NEK11 (Q8NG66 whole entry): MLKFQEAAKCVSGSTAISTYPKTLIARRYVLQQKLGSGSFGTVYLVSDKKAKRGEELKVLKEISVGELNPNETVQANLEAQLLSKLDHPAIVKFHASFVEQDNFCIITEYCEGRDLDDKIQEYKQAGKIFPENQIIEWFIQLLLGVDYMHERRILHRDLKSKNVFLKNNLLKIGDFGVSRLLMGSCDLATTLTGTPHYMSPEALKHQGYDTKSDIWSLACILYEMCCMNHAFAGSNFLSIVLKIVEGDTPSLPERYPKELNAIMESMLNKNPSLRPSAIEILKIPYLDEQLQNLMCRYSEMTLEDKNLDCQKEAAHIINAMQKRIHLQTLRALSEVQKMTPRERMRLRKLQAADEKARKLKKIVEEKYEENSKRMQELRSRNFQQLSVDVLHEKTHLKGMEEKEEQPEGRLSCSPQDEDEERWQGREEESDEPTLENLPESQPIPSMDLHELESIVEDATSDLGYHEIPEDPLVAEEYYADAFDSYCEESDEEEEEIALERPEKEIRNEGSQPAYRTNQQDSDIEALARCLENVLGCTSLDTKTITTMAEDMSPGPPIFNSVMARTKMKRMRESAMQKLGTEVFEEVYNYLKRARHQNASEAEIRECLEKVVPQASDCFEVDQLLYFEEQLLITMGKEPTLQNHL

[22] = target: PRKG1 (Homo sapiens, UniProt Q13976)
[23] = target: ERBB3 (Homo sapiens, UniProt P21860)
[24] = target: T6, PFTAIRE2 (Homo sapiens, UniProt Q96Q40)
T6 construct: gene CDK15
T6 sequence (Q96Q40 whole entry): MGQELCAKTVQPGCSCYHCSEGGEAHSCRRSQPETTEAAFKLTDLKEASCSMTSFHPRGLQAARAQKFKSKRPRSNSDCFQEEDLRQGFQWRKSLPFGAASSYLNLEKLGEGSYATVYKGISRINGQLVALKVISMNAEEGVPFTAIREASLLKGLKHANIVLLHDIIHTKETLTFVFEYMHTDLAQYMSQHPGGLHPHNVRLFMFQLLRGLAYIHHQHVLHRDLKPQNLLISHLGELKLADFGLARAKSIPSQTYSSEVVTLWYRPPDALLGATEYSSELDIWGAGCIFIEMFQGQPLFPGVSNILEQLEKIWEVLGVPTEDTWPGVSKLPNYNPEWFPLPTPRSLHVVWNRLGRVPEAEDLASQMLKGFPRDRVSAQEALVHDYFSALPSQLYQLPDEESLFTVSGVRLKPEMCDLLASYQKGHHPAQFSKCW

[25] = target: SYK (Homo sapiens, UniProt P43405)
[26] = target: RET(V804M) (Homo sapiens, UniProt P07949, V804M)
[27] = target: T7, MKK7 (Homo sapiens, UniProt O14733)
T7 construct: gene MAP2K7

[28] = target: T8, PRP4 (Homo sapiens, UniProt Q13523)
T8 construct: gene PRPF4B
T8 sequence (Q13523 whole entry): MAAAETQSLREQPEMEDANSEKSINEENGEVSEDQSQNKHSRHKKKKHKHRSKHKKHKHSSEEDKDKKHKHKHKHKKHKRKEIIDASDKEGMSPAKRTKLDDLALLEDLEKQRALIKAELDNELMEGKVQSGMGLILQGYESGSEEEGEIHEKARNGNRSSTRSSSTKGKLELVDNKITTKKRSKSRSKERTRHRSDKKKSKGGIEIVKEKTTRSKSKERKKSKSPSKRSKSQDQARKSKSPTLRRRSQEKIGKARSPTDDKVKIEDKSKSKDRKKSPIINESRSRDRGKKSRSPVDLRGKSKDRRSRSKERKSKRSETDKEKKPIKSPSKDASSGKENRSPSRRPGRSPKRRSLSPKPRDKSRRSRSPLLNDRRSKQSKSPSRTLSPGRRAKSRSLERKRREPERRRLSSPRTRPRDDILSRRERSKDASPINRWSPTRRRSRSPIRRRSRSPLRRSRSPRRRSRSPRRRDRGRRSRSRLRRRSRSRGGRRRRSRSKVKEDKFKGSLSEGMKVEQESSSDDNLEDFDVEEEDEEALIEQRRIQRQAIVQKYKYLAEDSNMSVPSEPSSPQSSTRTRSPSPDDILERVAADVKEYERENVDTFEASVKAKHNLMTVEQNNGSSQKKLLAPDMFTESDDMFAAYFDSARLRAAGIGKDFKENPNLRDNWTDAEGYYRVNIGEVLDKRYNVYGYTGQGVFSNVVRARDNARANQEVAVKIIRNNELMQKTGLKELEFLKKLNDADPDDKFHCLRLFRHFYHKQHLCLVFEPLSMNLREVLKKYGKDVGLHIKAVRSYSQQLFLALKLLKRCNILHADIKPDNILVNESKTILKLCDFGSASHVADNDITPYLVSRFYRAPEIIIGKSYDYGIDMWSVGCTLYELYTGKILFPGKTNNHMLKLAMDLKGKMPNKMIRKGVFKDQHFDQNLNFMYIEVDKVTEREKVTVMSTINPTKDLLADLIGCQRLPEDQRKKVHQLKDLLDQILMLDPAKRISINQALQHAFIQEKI

[29] = target: LIMK2 (Homo sapiens, UniProt P53671)
[30] = target: T9, PKAC-beta (Homo sapiens, UniProt P22694)
T9 construct: gene PRKACB

[31] = target: CHEK1 (Homo sapiens, UniProt O14757)
Sequence of CHEK1 (O14757 whole entry): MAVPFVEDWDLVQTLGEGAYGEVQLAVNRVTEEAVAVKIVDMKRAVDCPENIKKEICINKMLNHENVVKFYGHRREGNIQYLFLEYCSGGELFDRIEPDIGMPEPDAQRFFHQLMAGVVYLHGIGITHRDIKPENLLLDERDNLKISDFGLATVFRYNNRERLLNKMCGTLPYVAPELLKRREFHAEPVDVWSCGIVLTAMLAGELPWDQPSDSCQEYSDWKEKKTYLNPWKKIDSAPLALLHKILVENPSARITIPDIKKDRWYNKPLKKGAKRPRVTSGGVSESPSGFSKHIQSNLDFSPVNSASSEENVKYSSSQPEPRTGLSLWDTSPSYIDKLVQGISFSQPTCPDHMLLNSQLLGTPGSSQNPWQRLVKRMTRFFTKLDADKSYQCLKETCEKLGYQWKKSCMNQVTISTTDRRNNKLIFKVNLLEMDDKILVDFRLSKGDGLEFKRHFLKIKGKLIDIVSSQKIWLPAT

[32] = target: CLK4 (Homo sapiens, UniProt Q9HAZ1)
[33] = target: PHKG2 (Homo sapiens, UniProt P15735)
Sequence of PHKG2 (P15735 whole entry): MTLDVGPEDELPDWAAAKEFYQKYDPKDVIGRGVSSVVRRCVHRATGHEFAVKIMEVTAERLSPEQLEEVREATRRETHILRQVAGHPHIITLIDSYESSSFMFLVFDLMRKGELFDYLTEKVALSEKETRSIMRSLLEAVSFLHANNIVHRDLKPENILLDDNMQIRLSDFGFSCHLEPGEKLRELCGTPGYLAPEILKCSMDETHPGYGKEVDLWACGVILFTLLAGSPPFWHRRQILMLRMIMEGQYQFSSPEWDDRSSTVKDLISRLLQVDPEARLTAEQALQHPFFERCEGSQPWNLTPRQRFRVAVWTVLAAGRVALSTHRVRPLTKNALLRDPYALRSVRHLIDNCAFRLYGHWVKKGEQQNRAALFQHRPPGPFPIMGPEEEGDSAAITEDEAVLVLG

[34] = target: JAK1(JH2domain-pseudokinase) (Homo sapiens, UniProt P23458)
[35] = target: JAK3(JH1domain-catalytic) (Homo sapiens, UniProt P52333)

Sequence of PAK1 (Q13153 whole entry): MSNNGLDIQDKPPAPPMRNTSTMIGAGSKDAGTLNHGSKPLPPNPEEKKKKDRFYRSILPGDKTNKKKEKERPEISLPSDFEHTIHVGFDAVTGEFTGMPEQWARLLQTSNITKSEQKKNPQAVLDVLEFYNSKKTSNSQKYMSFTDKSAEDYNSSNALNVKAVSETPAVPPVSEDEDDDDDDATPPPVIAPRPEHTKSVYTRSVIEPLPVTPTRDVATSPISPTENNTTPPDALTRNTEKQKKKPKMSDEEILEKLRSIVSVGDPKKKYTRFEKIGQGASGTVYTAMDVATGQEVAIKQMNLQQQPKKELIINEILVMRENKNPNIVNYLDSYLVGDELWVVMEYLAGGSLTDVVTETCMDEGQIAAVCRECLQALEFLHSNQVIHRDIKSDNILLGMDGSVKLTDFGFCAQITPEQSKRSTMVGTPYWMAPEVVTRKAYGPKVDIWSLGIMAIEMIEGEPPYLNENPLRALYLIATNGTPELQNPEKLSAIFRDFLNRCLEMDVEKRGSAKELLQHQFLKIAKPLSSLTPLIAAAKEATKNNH

Question: What does the source list for `Cc1cn(-c2cc(NC(=O)c3ccc4c(c3)CN(c3cncnc3)C[C@@H]4C)cc(C(F)(F)F)c2)cn1` [Compound 6j]?
Answer: remaining activity at 1 µM [1]: 37%; remaining activity at 1 µM [2]: 64%; remaining activity at 1 µM [3]: 84%; remaining activity at 1 µM [4]: 100%; remaining activity at 1 µM [5]: 100%; remaining activity at 1 µM [6]: 87%; remaining activity at 1 µM [7]: 71%; remaining activity at 1 µM [8]: 100%; remaining activity at 1 µM [9]: 93%; remaining activity at 1 µM [10]: 76%; remaining activity at 1 µM [11]: 100%; remaining activity at 1 µM [12]: 94%; remaining activity at 1 µM [13]: 100%; remaining activity at 1 µM [14]: 100%; remaining activity at 1 µM [15]: 98%; remaining activity at 1 µM [16]: 74%; remaining activity at 1 µM [17]: 87%; remaining activity at 1 µM [18]: 96%; remaining activity at 1 µM [19]: 100%; remaining activity at 1 µM [20]: 71%; remaining activity at 1 µM [21]: 87%; remaining activity at 1 µM [22]: 81%; remaining activity at 1 µM [23]: 100%; remaining activity at 1 µM [24]: 86%; remaining activity at 1 µM [25]: 93%; remaining activity at 1 µM [26]: 100%; remaining activity at 1 µM [27]: 100%; remaining activity at 1 µM [28]: 100%; remaining activity at 1 µM [29]: 100%; remaining activity at 1 µM [30]: 97%; remaining activity at 1 µM [31]: 96%; remaining activity at 1 µM [32]: 96%; remaining activity at 1 µM [33]: 79%; remaining activity at 1 µM [34]: 100%; remaining activity at 1 µM [35]: 100%
